According to patent US20250243245A1 (priority 2022, published 2025):
Values joined by “and” are separate entries in the source; they are usually repeats but may differ in a detail not shown here. Identical values can stand only once. Like-named read-outs stand apart in the source and are kept apart here. Where a SMILES comes first, the peptide text is derived from it.

Legend:
E. coli strain BL21 = conditions: BL21, 24 h
[1] = test system: tomato and tobacco leaves; experiment: Leaf infiltration toxicity on tomato and tobacco leaves; conditions: for toxicity to tomato and tobacco: 15-25 μM, even after 96 hours of leaf infiltration; for corrosion of infiltrated tomato and tobacco leaves: 24, 48, 72, and 96 hours of infiltration (FIGS. 8A-H)
in vitro = conditions: human, HEK cells (HEK294 [sic])
CLas = assay type: cell-based, Candidatus Liberibacter asiaticus
E. amylovora = assay type: cell-based, Erwinia amylovora
[2] = test system: selected genes in the PTI, ETI, and SA/JA/ET signaling; assay type: cell-based, apple (Red Delicious)

| SMILES | MIC (E. coli strain BL21) [mM] | IC50 (E. coli BL21; BL21, 24 h) [nM] | toxicity to tomato and tobacco [1] | corrosion of infiltrated tomato and tobacco leaves [1] | cytotoxicity at 72 h, 20 µM (in vitro) [%] | further results |
| --- | --- | --- | --- | --- | --- | --- |
| CC[C@H](C)[C@H](NC(=O)[C@H](CCCNC(=N)N)NC(=O)[C@H](CCCNC(=N)N)NC(=O)[C@H](CCC(N)=O)NC(=O)[C@H](Cc1c[nH]c2ccccc12)NC(=O)[C@@H](N)Cc1ccccc1)C(=O)N[C@@H](CCCNC(=N)N)C(=O)N[C@@H](CCCNC(=N)N)C(=O)N[C@@H](Cc1c[nH]c2ccccc12)C(=O)N[C@@H](CCCNC(=N)N)C(=O)N[C@@H](CCCNC(=N)N)C(=O)O [Peptide 11P-3, reference compound] (H-FWQRRIRRWRR-OH; N-terminus and C-terminus assumed) | >20 | 49000 ± 2790 | – | – | – | – |
| CC[C@H](C)[C@H](NC(=O)[C@H](CCC(=O)O)NC(=O)[C@H](CC(C)C)NC(=O)[C@@H](NC(=O)[C@H](CCCCN)NC(=O)[C@H](CCC(=O)O)NC(=O)[C@@H]1CCCN1C(=O)[C@H](CC(C)C)NC(=O)[C@H](CCCCN)NC(=O)[C@@H](N)CCCCN)[C@@H](C)CC)C(=O)N[C@@H](CC(C)C)C(=O)NCC(=O)N[C@@H](CO)C(=O)NCC(=O)N[C@@H](Cc1ccc(O)cc1)C(=O)N[C@@H](CCCCN)C(=O)N[C@@H](CCCCN)C(=O)N[C@@H](CC(C)C)C(=O)N1CCC[C@H]1C(=O)N[C@@H](Cc1ccccc1)C(=O)N[C@@H](Cc1c[nH]c2ccccc12)C(=O)N[C@@H](CCC(N)=O)C(=O)N[C@@H](CCCNC(=N)N)C(=O)N[C@@H](CCCNC(=N)N)C(=O)N[C@H](C(=O)N[C@@H](CCCNC(=N)N)C(=O)N[C@@H](CCCNC(=N)N)C(=O)N[C@@H](Cc1c[nH]c2ccccc12)C(=O)N[C@@H](CCCNC(=N)N)C(=O)N[C@@H](CCCNC(=N)N)C(=O)O)[C@@H](C)CC [Gen-2] (H-KKLPEKILEILGSGYKKLPFWQRRIRRWRR-OH; N-terminus and C-terminus assumed) | 2.5 to 5 | 2830 ± 140 | – | – | – | – |
| CC[C@H](C)[C@H](NC(=O)[C@H](CCCNC(=N)N)NC(=O)[C@H](CCCNC(=N)N)NC(=O)[C@H](CCC(N)=O)NC(=O)[C@H](Cc1c[nH]c2ccccc12)NC(=O)[C@H](Cc1ccccc1)NC(=O)CNC(=O)[C@@H]1CCCN1C(=O)[C@H](CO)NC(=O)CNC(=O)[C@H](CCCCN)NC(=O)[C@H](CC(C)C)NC(=O)[C@H](CO)NC(=O)[C@H](CCC(=O)O)NC(=O)[C@H](CC(C)C)NC(=O)[C@@H](NC(=O)[C@H](CCCCN)NC(=O)[C@H](CC(C)C)NC(=O)[C@@H](NC(=O)[C@H](CCCCN)NC(=O)[C@H](CCC(=O)O)NC(=O)[C@@H]1CCCN1C(=O)[C@H](CC(C)C)NC(=O)[C@H](CCCCN)NC(=O)[C@@H](N)CCCCN)[C@@H](C)CC)[C@@H](C)CC)C(=O)N[C@@H](CCCNC(=N)N)C(=O)N[C@@H](CCCNC(=N)N)C(=O)N[C@@H](Cc1c[nH]c2ccccc12)C(=O)N[C@@H](CCCNC(=N)N)C(=O)N[C@@H](CCCNC(=N)N)C(=O)O [UGK-17] (H-KKLPEKILKILESLKGSPGFWQRRIRRWRR-OH) | – | 1360 ± 40 | not toxic | no corrosion beyond the infiltrated spots | < 20 | – |
| CC[C@H](C)[C@H](NC(=O)[C@H](CCCCN)NC(=O)[C@H](CC(C)C)NC(=O)[C@@H](NC(=O)[C@H](CCCCN)NC(=O)[C@H](CCCCN)NC(=O)[C@@H](NC(=O)[C@H](CC(C)C)NC(=O)[C@H](CCCCN)NC(=O)[C@@H](N)CCCCN)[C@@H](C)CC)[C@@H](C)CC)C(=O)N[C@@H](CC(C)C)C(=O)O [Peptide 11P-1, reference compound] (H-KKLIKKILKIL-OH; N-terminus and C-terminus assumed) | 10 to 20 | 12900 ± 620 | – | – | – | – |
| CC[C@H](C)[C@H](NC(=O)[C@H](CCCCN)NC(=O)[C@H](CC(C)C)NC(=O)[C@@H](NC(=O)[C@H](CCCCN)NC(=O)[C@H](CCCCN)NC(=O)[C@@H]1CCCN1C(=O)[C@H](CC(C)C)NC(=O)[C@H](CCCCN)NC(=O)[C@@H](N)CCCCN)[C@@H](C)CC)C(=O)N[C@@H](CC(C)C)C(=O)NCC(=O)N[C@@H](CO)C(=O)NCC(=O)N[C@@H](Cc1ccc(O)cc1)C(=O)NCC(=O)N[C@@H](CO)C(=O)N1CCC[C@H]1C(=O)NCC(=O)N[C@@H](Cc1ccccc1)C(=O)N[C@@H](Cc1c[nH]c2ccccc12)C(=O)N[C@@H](CCC(N)=O)C(=O)N[C@@H](CCCNC(=N)N)C(=O)N[C@@H](CCCNC(=N)N)C(=O)N[C@H](C(=O)N[C@@H](CCCNC(=N)N)C(=O)N[C@@H](CCCNC(=N)N)C(=O)N[C@@H](Cc1c[nH]c2ccccc12)C(=O)N[C@@H](CCCNC(=N)N)C(=O)N[C@@H](CCCNC(=N)N)C(=O)O)[C@@H](C)CC [Peptide 30P-3] | – | 1450 ± 90 | not toxic | no corrosion beyond the infiltrated spots | < 20 | Ct value, DNA, CLas clearance from infected citrus leaves (CLas): 29.08 ± 0.018 (2.3 × 10^4 ± 0.122); Ct value, RNA, CLas clearance from infected citrus leaves (CLas): 31.80 ± 0.028 (6.8 × 10^3 ± 0.190); Ct, DNA, HLBas (CLas primer), Mean (CLas): 27.53 and 26.725; Ct, DNA, HLBas (CLas primer), single replicate (CLas): 27 (2×) and 28.06 and 26.45; Ct, RNA, HLBas (CLas primer), Mean (CLas): 30.155; Ct, RNA, HLBas (CLas primer), single replicate (CLas): 29.94 and 30.37; Ct, DNA, Erwinia Primer (P29T), Mean (E. amylovora; 20 μM peptide): 37.19; Ct, DNA, Erwinia Primer (P29T), single replicate (E. amylovora; 20 μM peptide): 37.67 and 36.71; Ct, DNA, Erwinia Primer (P29T), Mean (E. amylovora; 25 μM peptide): 36.5; Ct, DNA, Erwinia Primer (P29T), single replicate (E. amylovora; 25 μM peptide): 37.76 and 35.24; Ct, RNA, Erwinia Primer (P29T), Mean (E. amylovora; 25∞M peptide): 31.535; Ct, RNA, Erwinia Primer (P29T), single replicate (E. amylovora; 25∞M peptide): 31.56 and 31.51; Ct value, DNA, E. amylovora clearance from infected apple leaves (E. amylovora; qPCR of DNA, 25 μM peptide): 36.50 ± 0.89; cfu, DNA, E. amylovora clearance from infected apple leaves (E. amylovora; qPCR of DNA, 25 μM peptide, value in brackets): ~10^2 cfu; Ct value, RNA, E. amylovora clearance from infected apple leaves (E. amylovora; qPCR of RNA, 25 μM peptide): 31.54 ± 0.018; cfu, RNA, E. amylovora clearance from infected apple leaves (E. amylovora; qPCR of RNA, 25 μM peptide, value in brackets): 7.8 × 10^3 ± 0.122 cfu; expression of the selected genes [2]: lower expression of the selected genes |
| CC[C@H](C)[C@H](NC(=O)[C@H](CCCCN)NC(=O)[C@H](CC(C)C)NC(=O)[C@@H](NC(=O)[C@H](CCC(=O)O)NC(=O)[C@H](CCCCN)NC(=O)[C@@H]1CCCN1C(=O)[C@H](CC(C)C)NC(=O)[C@H](CCCCN)NC(=O)[C@@H](N)CCCCN)[C@@H](C)CC)C(=O)N[C@@H](CC(C)C)C(=O)NCC(=O)N[C@@H](CO)C(=O)NCC(=O)N[C@@H](Cc1ccc(O)cc1)C(=O)NCC(=O)N[C@@H](CO)C(=O)N[C@@H](CC(C)C)C(=O)N1CCC[C@H]1C(=O)N[C@@H](CCCCN)C(=O)N[C@@H](CCC(=O)O)C(=O)N[C@H](C(=O)N[C@@H](CC(C)C)C(=O)N[C@@H](CCCCN)C(=O)N[C@H](C(=O)N[C@@H](CC(C)C)C(=O)N[C@@H](CCC(=O)O)C(=O)N[C@@H](CC(C)C)C(=O)N[C@@H](CCCCN)C(=O)N[C@@H](CCCCN)C(=O)O)[C@@H](C)CC)[C@@H](C)CC [Gen-1] (H-KKLPKEILKILGSGYGSLPKEILKILELKK-OH; N-terminus and C-terminus assumed) | 5 to 10 | 10220 ± 70 | – | – | – | – |
| CC[C@H](C)[C@H](NC(=O)[C@H](CCCNC(=N)N)NC(=O)[C@H](CCCNC(=N)N)NC(=O)[C@H](CCC(N)=O)NC(=O)[C@H](Cc1c[nH]c2ccccc12)NC(=O)[C@H](Cc1ccccc1)NC(=O)CNC(=O)[C@@H]1CCCN1C(=O)[C@H](CO)NC(=O)CNC(=O)[C@H](Cc1ccc(O)cc1)NC(=O)CNC(=O)[C@H](CO)NC(=O)[C@H](CCC(=O)O)NC(=O)[C@H](CC(C)C)NC(=O)[C@@H](NC(=O)[C@H](CCCCN)NC(=O)[C@H](CC(C)C)NC(=O)[C@@H](NC(=O)[C@H](CCCCN)NC(=O)[C@H](CCC(=O)O)NC(=O)[C@@H]1CCCN1C(=O)[C@H](CC(C)C)NC(=O)[C@H](CCCCN)NC(=O)[C@@H](N)CCCCN)[C@@H](C)CC)[C@@H](C)CC)C(=O)N[C@@H](CCCNC(=N)N)C(=O)N[C@@H](CCCNC(=N)N)C(=O)N[C@@H](Cc1c[nH]c2ccccc12)C(=O)N[C@@H](CCCNC(=N)N)C(=O)N[C@@H](CCCNC(=N)N)C(=O)O [UGK-13] (H-KKLPEKILKILESGYGSPGFWQRRIRRWRR-OH) | – | 1240 ± 20 | not toxic | no corrosion beyond the infiltrated spots | < 20 | IC50 (E. coli BL21; BL21): 1200 ± 100 nM; IC50 (ATCC25922): 1400 ± 300 nM |
